Assay results from patent US20240293392A1, “INHIBITOR COMPOUNDS” (NeoPhore Limited, priority 2021, published 2024).

Assays:
[1] = target: T1, recombinant N-terminal MLH1 (residues 15-340) (Homo sapiens, UniProt P40692); test: Fluorescence Polarisation Assay for MLH1; type: binding; details: fluorescence polarisation probe displacement; 100 nM N-terminal MLH1, 5 nM probe compound
T1 construct: recombinant N-terminal MLH1 (residues 15-340)
T1 sequence (P40692 15-340): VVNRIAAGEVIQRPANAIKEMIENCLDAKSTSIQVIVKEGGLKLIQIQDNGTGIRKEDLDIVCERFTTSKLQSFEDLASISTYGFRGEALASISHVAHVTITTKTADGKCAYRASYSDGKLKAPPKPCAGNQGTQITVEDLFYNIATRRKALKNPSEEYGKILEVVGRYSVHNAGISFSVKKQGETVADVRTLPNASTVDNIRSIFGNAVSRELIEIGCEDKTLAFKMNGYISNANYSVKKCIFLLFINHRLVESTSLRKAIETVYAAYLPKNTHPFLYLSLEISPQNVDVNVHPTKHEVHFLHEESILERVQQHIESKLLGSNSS
Experimental: Fluorescence Polarisation Assay for MLH1
Test compounds, as 10 mM DMSO stocks, were dispensed into a 384-well Low Flange Black Flat Bottom Polystyrene Non-binding Surface plate (Corning®, item number 3575) using a Labcyte Echo acoustic liquid handler. Test compounds were added to wells in columns 1-22 whilst DMSO was added to wells in columns 23 and 24 in order to normalise the plate. 20 μL of a 2× solution (200 nM) of recombinant N-terminal MLH1 (residues 15-340) in assay buffer (25 mM HEPES, pH 7.5, 250 mM NaCl, 10 mM MgCl2, 0.01% Triton X-100, 5 mM dithiothreitol) was added to all wells in columns 1-23 and 20 μL assay buffer was added to all wells in column 24 using an E1-ClipTip pipette (ThermoFisher). Plates were centrifuged for 1 minute at 250×g and were incubated at room temperature for 30 minutes prior to the addition of 20 μL of 2× (10 nM) 5-((5-(4-((2-(2,4-dihydroxy-5-isopropylbenzoyl)isoindolin-5-yl)methyl)piperazin-1-yl)pentyl)carbamoyl)-2-(6-(dimethylamino)-3-(dimethyliminio)-3H-xanthen-9-yl)benzoate in assay buffer (prepared from a 1 mM DMSO stock) with an E1-ClipTip pipette (ThermoFisher). The final concentration of N-terminal MLH1 was 100 nM and the final concentration of the probe compound was 5 nM. Compound plates were centrifuged for 1 minute at 250×g for 1 minute and immediately read on a PheraStar FSX (fitted with 384-well aperture spoon and 590 675 675 FP optic module). The gain and focus were adjusted before each plate was read so that the polarisation of a no enzyme control (column 24) was equal to 35 mP. Data were normalised against the no inhibitor controls (column 23) and no enzyme controls (column 24).

[2] = target: T2, recombinant N-terminal PMS2 (residues 1-365) (Homo sapiens, UniProt P54278); test: Fluorescence Polarisation Assay for PMS2; type: binding; details: fluorescence polarisation probe displacement; 10 nM N-terminal PMS2, 5 nM probe compound; read-out: PMS2 IC50
T2 construct: recombinant N-terminal PMS2 (residues 1-365)
T2 sequence (P54278 1-365): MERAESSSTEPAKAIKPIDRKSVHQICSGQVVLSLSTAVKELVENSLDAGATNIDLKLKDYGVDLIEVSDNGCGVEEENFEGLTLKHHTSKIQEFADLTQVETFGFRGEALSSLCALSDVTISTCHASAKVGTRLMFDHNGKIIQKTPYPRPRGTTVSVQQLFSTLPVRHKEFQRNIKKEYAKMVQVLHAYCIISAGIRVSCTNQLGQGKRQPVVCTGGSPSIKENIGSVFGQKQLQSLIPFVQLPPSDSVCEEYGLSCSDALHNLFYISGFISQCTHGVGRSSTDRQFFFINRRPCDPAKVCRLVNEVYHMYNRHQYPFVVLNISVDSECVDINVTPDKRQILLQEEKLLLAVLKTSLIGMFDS
Experimental: Fluorescence Polarisation Assay for PMS2
For single point screening, test compounds were added to wells in columns 1-22 whilst DMSO was added to wells in columns 23 and 24 in order to normalise the plate. For potency determination, serial dilutions of test compounds were added to wells in columns 3-22 and DMSO volume was normalised across the plate.
20 μL assay buffer was added to all wells in columns 1 and 24 (column 24 only for single point screening) using a MultiDrop Combi (ThermoFisher). Plates were centrifuged for 1 minute at 250×g and were incubated at room temperature for 30 minutes prior to the addition of 20 μL of 2× (20 nM) of 5-((5-(4-((2-(2,4-dihydroxy-5-isopropylbenzoyl)isoindolin-5-yl)methyl)piperazin-1-yl)pentyl)carbamoyl)-2-(6-(dimethylamino)-3-(dimethyliminio)-3H-xanthen-9-yl)benzoate (referred to hereinafter as “probe compound”) in assay buffer (prepared from a 100 μM DMSO stock) with a MultiDrop Combi (ThermoFisher). The final concentration of N-terminal PMS2 was 10 nM and the final concentration of probe compound was 5 nM.
Compound plates were centrifuged for 1 minute at 250×g for 1 minute and were incubated at room temperature for 1 hour before being read on a PheraStar FSX (fitted with 384-well aperture spoon and 540 590 590 FP optic module). The gain and focus were adjusted before each plate was read so that the polarisation of a no enzyme control (column 24) was equal to 35 mP. Data were normalised against the no inhibitor controls (column 23) and no enzyme controls (column 24).

IC50 [1] [µM]	IC50 [2] [µM]	SMILES
< 1	< 1	CN1CCC(Oc2cc3c(c(N[C@H]4CCOC4)c2)CN(C(=O)c2c(O)cc(O)cc2OCc2ccccc2)CC3)CC1 [Example 139, (S)-(2-(Benzyloxy)-4,6-dihydroxyphenyl)(6-((1-methylpiperidin-4-yl)oxy)-8-((tetrahydrofuran-3-yl)amino)-3,4-dihydroisoquinolin-2(1H)-yl)methanone]
1 to 10	1 to 10	N#CC1CN(c2cccc3c2CN(C(=O)c2c(O)cc(O)cc2OCc2ccccc2)C3)C1 [Example 92, 1-(2-(2-(Benzyloxy)-4,6-dihydroxybenzoyl)isoindolin-4-yl)azetidine-3-carbonitrile]
< 1	1 to 10	CN1C[C@H](Nc2cccc3c2CN(C(=O)c2c(O)cc(O)cc2OCc2ccccn2)CC3)CC1=O [Example 59, (R)-4-((2-(2,4-dihydroxy-6-(pyridin-2-ylmethoxy)benzoyl)-1,2,3,4-tetrahydroisoquinolin-8-yl)amino)-1-methylpyrrolidin-2-one]
< 1	1 to 10	CC1(NCc2cccc3c2CN(C(=O)c2c(O)cc(O)cc2OCc2ccccc2)C3)COC1 [Example 82, (2-(Benzyloxy)-4,6-dihydroxyphenyl)(4-(((3-methyloxetan-3-yl)amino)methyl)isoindolin-2-yl)methanone]
< 1	1 to 10	O=C(c1c(O)cc(O)cc1OCc1ccccc1)N1CCc2nccc(N[C@H]3CCOC3)c2C1 [Example 63, (S)-(2-(Benzyloxy)-4,6-dihydroxyphenyl)(4-((tetrahydrofuran-3-yl)amino)-7,8-dihydro-1,6-naphthyridin-6(5H)-yl)methanone]
< 1	1 to 10	CN1CCC(Oc2cc3c(c(N[C@@H]4CCOC4)c2)CN(C(=O)c2c(O)cc(O)cc2OCc2ccccc2)CC3)CC1 [Example 138, (R)-(2-(Benzyloxy)-4,6-dihydroxyphenyl)(6-((1-methylpiperidin-4-yl)oxy)-8-((tetrahydrofuran-3-yl)amino)-3,4-dihydroisoquinolin-2(1H)-yl)methanone]
< 1	1 to 10	Cn1cc(Nc2cccc3c2CN(C(=O)c2c(O)cc(O)cc2OCc2ccccc2)CC3)cn1 [Example 117, (2-(Benzyloxy)-4,6-dihydroxyphenyl)(8-((1-methyl-1H-pyrazol-4-yl)amino)-3,4-dihydroisoquinolin-2(1H)-yl)methanone]
1 to 10	< 1	N#Cc1cccc2c1CN(C(=O)c1c(O)cc(O)cc1OCc1ccccc1)C2 [Example 91, 2-(2-(Benzyloxy)-4,6-dihydroxybenzoyl)isoindoline-4-carbonitrile]
1 to 10	1 to 10	Cc1c[nH]c(=O)cc1Nc1cccc2c1CN(C(=O)c1c(O)cc(O)cc1OCc1ccccc1)C2 [Example 24, 4-((2-(2-(benzyloxy)-4,6-dihydroxybenzoyl)isoindolin-4-yl)amino)-5-methylpyridin-2(1H)-one]
1 to 10	> 10	COc1cc(O)cc(O)c1C(=O)N1Cc2cccc(NC3CCOC3)c2C1 (stereo not drawn) [Example 16, (2,4-Dihydroxy-6-methoxyphenyl)(4-((tetrahydrofuran-3-yl)amino)isoindolin-2-yl)methanone]
1 to 10	1 to 10	O=C(c1c(O)cc(O)cc1OCc1ccccc1)N1CCc2cccc(Nc3cccnc3)c2C1 [Example 118, (2-(Benzyloxy)-4,6-dihydroxyphenyl)(8-(pyridin-3-ylamino)-3,4-dihydroisoquinolin-2(1H)-yl)methanone]
< 1	1 to 10	O=C(c1c(O)cc(O)cc1OCc1ccccc1)N1Cc2cccc(NCc3cocn3)c2C1 [Example 20, (2-(Benzyloxy)-4,6-dihydroxyphenyl)(4-((oxazol-4-ylmethyl)amino)isoindolin-2-yl)methanone]
< 1	1 to 10	CC(=O)N1CCC(Nc2cccc3c2CN(C(=O)c2c(O)cc(O)cc2OCc2ccccc2)C3)C1 (stereo not drawn) [Example 36, 1-(3-((2-(2-(Benzyloxy)-4,6-dihydroxybenzoyl)isoindolin-4-yl)amino)pyrrolidin-1-yl)ethan-1-one]
1 to 10	1 to 10	CC(Nc1cccc2c1CN(C(=O)c1c(O)cc(O)cc1OCc1ccccc1)C2)C1COC1 (stereo not drawn) [Example 45, (2-(Benzyloxy)-4,6-dihydroxyphenyl)(4-((1-(oxetan-3-yl)ethyl)amino)isoindolin-2-yl)methanone]
< 1	> 10	COCCOc1cc2c(c(N[C@@H]3CCOC3)c1)CN(C(=O)c1c(O)cc(O)cc1OCc1ccccn1)CC2 [Example 142, (R)-(2,4-Dihydroxy-6-(pyridin-2-ylmethoxy)phenyl)(6-(2-methoxyethoxy)-8-((tetrahydrofuran-3-yl)amino)-3,4-dihydroisoquinolin-2(1H)-yl)methanone]
1 to 10	1 to 10	O=C(c1c(O)cc(O)cc1OCc1ccccc1)N1CCc2c(cccc2NC2CCOC2)C1 (stereo not drawn) [Example 27, (2-(Benzyloxy)-4,6-dihydroxyphenyl)(5-((tetrahydrofuran-3-yl)amino)-3,4-dihydroisoquinolin-2(1H)-yl)methanone]
< 1	> 10	COCCCC(=O)N1CC[C@H](Nc2cccc3c2CN(C(=O)c2c(O)cc(O)cc2OCc2ccccc2)CC3)C1 [Example 151, (S)-1-(3-((2-(2-(Benzyloxy)-4,6-dihydroxybenzoyl)-1,2,3,4-tetrahydroisoquinolin-8-yl)amino)pyrrolidin-1-yl)-4-methoxybutan-1-one]
< 1	< 1	O=C(c1c(O)cc(O)cc1OCc1ccccc1)N1Cc2ccc(CNC3CCOC3)cc2C1 (stereo not drawn) [Example 145, (2-(Benzyloxy)-4,6-dihydroxyphenyl)(5-(((tetrahydrofuran-3-yl)amino)methyl)isoindolin-2-yl)methanone]
< 1	1 to 10	O=C(c1c(O)cc(O)cc1OCc1ccccc1)N1Cc2cccc(NCC3CCCO3)c2C1 (stereo not drawn) [Example 33, (2-(Benzyloxy)-4,6-dihydroxyphenyl)(4-(((tetrahydrofuran-2-yl)methyl)amino)isoindolin-2-yl)methanone]
1 to 10	> 10	O=C(c1c(O)cc(O)cc1OCc1ccccc1)N1CCc2cccc(NC3CCCC3)c2C1 [Example 76, (2-(Benzyloxy)-4,6-dihydroxyphenyl)(8-(cyclopentylamino)-3,4-dihydroisoquinolin-2(1H)-yl)methanone]
1 to 10	1 to 10	Cn1cc(Nc2cccc3c2CN(C(=O)c2c(O)cc(O)cc2OCc2ccccc2)C3)cn1 [Example 21, (2-(Benzyloxy)-4,6-dihydroxyphenyl)(4-((1-methyl-1H-pyrazol-4-yl)amino)isoindolin-2-yl)methanone]
